In US20040116348A1, “Polymer-linker-drug conjugates for targeted drug delivery” (priority 2002, published 2004):

How the values were obtained:
[1] = system: HT-1080 (a human fibrosarcoma line); experiment: MTT cytotoxicity, HT-1080; type: cell-based
Procedure: (§1) Open circles in FIGS. 6A-F represent free doxorubicin and closed circles represent LIG-doxorubicin.
(§2) Cell survival was assayed using an indirect colorimetric […] (MTT assay, e.g., see Alley et al., Cancer Res. 48:589, 1988). The tetrazolium salt MTT is metabolized by NAD-dependent dehydrogenase to form a colored reaction product and the amount of dye formed directly correlates with the number of viable cells. The formula for calculating % survival is given by:
(§3) %survival=(Ti−Tz)/(C−Tz) if Ti≧Tz or
(§4) %survival=(Ti−Tz)/Tz if Ti<Tz
(§5) where Ti=Net MTT reading of test growth in the presence of drugs; Tz=Net MTT reading at time zero with respect to the drug test; and C=Net MTT reading of control growth (see Grever et al., Seminars in Oncology, 19:622, 1992 and Boyd and Paull, Drug Development Research 34:91, 1995).
(§6) The cytotoxicity of methotrexate and various peptidyl-methotrexates were compared in order to assess bulk tolerance. The peptidyl-methotrexates were prepared by linking short peptides of three to four amino acids to methotrexate. […] Methotrexate was covalently coupled to the N-terminal end of the peptides via the γ-carboxyl of its glutamic acid (Nagy et al., Proc. Nat. Acad. Sci. USA 90:6373, 1993). […] Cytotoxicity was assayed as described above in Example 4. […] Example 8 describes the synthesis of certain dextran-oligopeptide-methotrexate conjugates.

[2] = system: BT-20 (a human breast carcinoma line); experiment: MTT cytotoxicity, BT-20; type: cell-based
Procedure: as §1, §2, §3, §4, §5, §6

[3] = system: U-87 (a human glioblastoma cell line); experiment: MTT cytotoxicity, U-87; type: cell-based
Procedure: as §1, §2, §3, §4, §5

[4] = system: PC-3 (a human prostate tumor cell line); experiment: MTT cytotoxicity, PC-3; type: cell-based
Procedure: as §1, §2, §3, §4, §5

[5] = system: KK-47 (a human bladder tumor cell line); experiment: MTT cytotoxicity, KK-47; type: cell-based
Procedure: as §1, §2, §3, §4, §5

[6] = system: MGH-U1 (a human bladder cell line); experiment: MTT cytotoxicity, MGH-U1; type: cell-based
Procedure: as §1, §2, §3, §4, §5

[7] = system: RT-112 (human urinary bladder transitional carcinoma line); experiment: MTT cytotoxicity, RT-112; type: cell-based
Procedure: as §2, §3, §4, §5
The cytotoxicity of methotrexate and various peptidyl-methotrexates were compared in order to assess bulk tolerance. The peptidyl-methotrexates were prepared by linking short peptides of three to four amino acids to methotrexate. The peptides were chosen to represent appropriate cleavage fragments from the MMP-2 sensitive substrate peptide IPVGLIG that was characterized in Examples 1-2. Methotrexate was covalently coupled to the N-terminal end of the peptides via the γ-carboxyl of its glutamic acid (Nagy et al., Proc. Nat. Acad. Sci. USA 90:6373, 1993). […]

[8] = system: human tumor cell lines; experiment: MTT cytotoxicity, overall statement over the panel of human tumor cell lines; type: cell-based; settings: three human tumor cell lines
Procedure: Cell survival was assayed using an indirect colorimetric […] (MTT assay, e.g., see Alley et al., Cancer Res. 48:589, 1988). The tetrazolium salt MTT is metabolized by NAD-dependent dehydrogenase to form a colored reaction product and the amount of dye formed directly correlates with the number of viable cells. The formula for calculating % survival is given by: […]

[9] = system: HT-1080 tumors; experiment: In vivo anti-tumor efficacy in SCID mice bearing HT-1080 tumors; settings: end of study; 50 mg methotrexate/kg i.p. on day 1, 8 and 15
Procedure: Each group included three mice.
The dosage chosen for these experiments was based on the reported optimum dosage of free methotrexate for treating tumor-bearing mice (Burger et al., Int. J. Cancer 92:718, 2001). Three weekly injections at 50 mg of methotrexate/kg of body weight was half the maximum tolerated dosage. In another set of experiments the dosage was increased to three weekly injections of 100 mg/kg, or to injections of 50 mg/kg twice per week.

[10] = Body weight change as indicator of toxic side effects in SCID mice bearing HT-1080 tumors; settings: 50 mg methotrexate/kg i.p. on day 1, 8 and 15
Procedure: After 7-10 days, tumors of size 150-300 mm^3 were established on each mouse. […] Weight and tumor size were monitored three times a week. Tumor size was calculated as width^2×length×0.52. […] As a second control, another group of mice were injected with phosphate buffered saline. Each group included three mice.

## CC[C@H](C)[C@H](NC(=O)[C@@H](N)CC(C)C)C(=O)NCC(=O)N[C@H]1C[C@H](O[C@H]2C[C@](O)(C(=O)CO)Cc3c(O)c4c(c(O)c32)C(=O)c2c(OC)cccc2C4=O)O[C@@H](C)[C@H]1O [LIG-doxorubicin]
[1]
  cytotoxicity (% survival, MTT): cytotoxic
[2]
  cytotoxicity (% survival, MTT): cytotoxic
[3]
  cytotoxicity (% survival, MTT): cytotoxic
[4]
  cytotoxicity (% survival, MTT): cytotoxic
[5]
  cytotoxicity (% survival, MTT): cytotoxic
[6]
  cytotoxicity (% survival, MTT): cytotoxic

## CC(C)[C@H](NC(=O)[C@@H]1CCCN1C(=O)CC[C@H](NC(=O)c1ccc(N(C)Cc2cnc3nc(N)nc(N)c3n2)cc1)C(=O)O)C(=O)NCC(=O)O [methotrexate-PVG]
[1]
  cytotoxicity (% survival, MTT): cytotoxic
[2]
  cytotoxicity (% survival, MTT): cytotoxic
[7]
  cytotoxicity (% survival, MTT): cytotoxic
[8]
  cytotoxicity relative to free methotrexate: comparable

## CN(Cc1cnc2nc(N)nc(N)c2n1)c1ccc(C(=O)N[C@@H](CCC(=O)O)C(=O)O)cc1 [methotrexate]
[9]
  tumor growth suppression compared to saline control: 48%
[10]
  body weight drop compared to initial weight: 13%
